Test system: Lu99 KRAS G12C lung carcinoma xenograft
Assay: Anti-tumor efficacy in Lu99 KRAS G12C lung carcinoma xenografts
Format: in vivo, mice
Settings: Lu99, oral, Compound A 100 mg/kg once daily, alone or in combination
Description: It carries the allele NM_033360.4(KRAS):c.34G>T and consequently a heterozygous KRAS Gly12Cys mutation. Lu99 cells were grown in sterile conditions in a 37° C. incubator with 5% CO2 for two weeks. The cells were kept in RPMI media supplemented with 10% FCS, 2 mM L-Glutamin, 1 mM sodium pyruvate and 10 mM HEPES, and split 1:6 every 3 days. […] On the day of injection, cells were harvested after 8 passages in total, including passages from the vendor. Cells were resuspended in 50% HBSS and 50% Matrigel at a final concentration of 10·10^6 cells/ml.
Experiments were performed with female nude mice (Charles River Laboratories, Crl:NU(NCr)-Foxn1nu Homozygous). […] Animals were allowed to accommodate at least for 7 days.
Mice were injected subcutaneously with Lu99 human NSCLC cells to induce xenograft tumors and randomized into treatment groups when the mean tumor volume reached ˜250 mm^3.
The control group received a solution of 0.1% Tween 80 (Fisher Scientific AG #BP338-500) and 0.5% Methylcellulose in water.
The treatment period was between 9 to 28 days, depending on the groups.
Tumor growth was monitored regularly post cell inoculation and animals were randomized into treatment groups (n=6) when TV reached appropriate volume. During the treatment period, xenograft tumor sizes were measured about 2-3 times per week manually with calipers, and the TV was estimated in mm^3 using the formula: Length×Width^2/2.
Mice were injected subcutaneously with Lu99 human NSCLC cells to induce xenograft tumors and randomized into treatment groups when the mean tumor volume reached ˜200 mm^3. […] The treatment period was between 14 to 35 days, depending on the groups. Animals treated with vehicle were terminated at day 14. […] Tumor volumes were recorded and are represented as mean±SEM (standard error of the mean) for each group. Anti-tumor response of treatment groups vs. vehicle group was calculated at day 14 as % T/C or % regression.

For `C[C@@H]1OCC2(CCN(c3cnc(Sc4ccnc(N)c4Cl)c(N)n3)CC2)[C@@H]1N` [TNO155, (3S,4S)-8-(6-amino-5-((2-amino-3-chloropyridin-4-yl)thio)pyrazin-2-yl)-3-methyl-2-oxa-8-azaspiro[4.5]decan-4-amine], the “anti-tumor response (Example 7)” value (TNO155 10 mg/kg twice daily continuous) was “slight tumor growth delay” and the “anti-tumor response (Example 6)” value (TNO155 10 mg/kg twice daily, up to 28 days) was “moderate anti-tumor response”.
